“And” between values parts separate entries of the source, which are not always exact repeats. Equal values may be shown once.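 Following 48 hours of exposure in 96-well plates, responses at five concentrations were used to interpolate endpoints linearly. Here, GI50 denotes the concentration required for 50% inhibition of growth. At the TGI there is no net growth.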
Tests used:
Assay in all cases: DTP human tumour cell line panel, 48 h
A498 renal = system: A498 renal
BT-549 breast = system: BT-549 breast
HOP-92 NSCLC = system: HOP-92 NSCLC
HS 578T breast = system: HS 578T breast
M14 melanoma = system: M14 melanoma
MOLT-4 leukemia = system: MOLT-4 leukemia
NCI-H226 lung = system: NCI-H226 lung
OVCAR-5 ovarian = system: OVCAR-5 ovarian
SNB-19 CNS = system: SNB-19 CNS
SW-620 colon = system: SW-620 colon

Structure (SMILES) | GI50 (A498 renal) | TGI (A498 renal) | TGI (BT-549 breast) | GI50 (HOP-92 NSCLC) | TGI (HOP-92 NSCLC) | GI50 (HS 578T breast) | GI50 (M14 melanoma) | TGI (M14 melanoma) | GI50 (MOLT-4 leukemia) | TGI (NCI-H226 lung) | GI50 (OVCAR-5 ovarian) | TGI (OVCAR-5 ovarian) | TGI (SNB-19 CNS) | GI50 (SW-620 colon) | TGI (SW-620 colon) | GI50 (BT-549 breast) | TGI (HS 578T breast) | TGI (MOLT-4 leukemia) | GI50 (NCI-H226 lung) | GI50 (SNB-19 CNS)
CCCCCCCCCC[C@@H](O)[C@@H]1CC[C@@H]([C@@H]2CC[C@@H]([C@@H](O)CCCCCCCCCC[C@H](O)CC3=CC(C)OC3=O)O2)O1 (stereo partly specified) | 8.48 µM | 8.64 µM and 34.9 µM | 51.6 µM | 10.3 µM | 8.09 µM and 33.8 µM | 14 µM | 5.47 µM | 5.16 µM and 29.6 µM | 2.93 µM | 3.49 µM | > 75.4 µM | > 100 µM | 24.6 µM | 4.82 µM | > 100 µM |  |  |  |  | 
Cc1c(Cl)c(=O)oc2cc(OC/C=C3\CCC(=O)O3)ccc12 | 21.1 µM | 75.3 µM | 32 µM | 13 µM | 30 µM | 24.2 µM | 13.3 µM | 31.7 µM | 16.5 µM | > 100 µM | 27.8 µM | 80 µM | 51.7 µM | 13.5 µM | 35.6 µM | 15.7 µM | 77.4 µM | > 100 µM | 34.6 µM | 17.7 µM
Cc1ccc(C(=O)c2sc3nc4c(cc3c2N)CCCC4)c(C)c1 | 0.236 µM | 11 µM | > 100 µM | 3.36 µM | 87.6 µM | 0.415 µM | 0.19 µM | > 100 µM | 0.563 µM | > 100 µM | 2.49 µM | > 100 µM | > 100 µM | 0.265 µM | > 100 µM | 1.2 µM | > 100 µM | > 100 µM | 2.67 µM | 4.68 µM
CNCC/C=C1\c2cc3c(cc2-c2c1c1cc(OC)c(OC)cc1c(=O)n2C)OCO3 | 2.97 µM | 12 µM | 22.5 µM | 0.301 µM | 2.74 µM | 8.88 µM | 0.621 µM | 17 µM | < 0.01 µM | 2.11 µM | 4.51 µM | 27.4 µM | 23.1 µM | < 0.0142 µM | 16.4 µM | 3.66 µM | 38.9 µM |  | 0.232 µM | 1.08 µM
O=C(O)c1cc2ccccc2c2c3c(ccc12)OCO3 | 125 µM | 324 µM | 390 µM | 18.7 µM | 96.5 µM | 129 µM | 179 µM | 493 µM | 192 µM | 818 µM | 279 µM | > 1000 µM | 849 µM | 245 µM | > 1000 µM | 119 µM | 522 µM | 513 µM | 123 µM | 152 µM
NCCCCCNc1noc(Cc2c[nH]c3cc(Br)ccc23)n1 | 1.76 µM | 10.7 µM | 24.4 µM | 4.62 µM | 33.6 µM | 1.99 µM | 0.445 µM | 10.3 µM | 2.44 µM | 26.5 µM | 5.29 µM | 24.6 µM | 25.6 µM | 0.707 µM | 16.9 µM | 2.43 µM | 22.1 µM | 18.6 µM | 12.7 µM | 7.67 µM
C=C1C(=O)OC2C1C(OC(=O)/C(C)=C/C)CC(O)(CCl)C1C(O)C=C(C)C21O (stereo unspecified) |  | > 60.1 µM | 23.4 µM |  | 24.4 µM |  |  | 23.8 µM |  | 46.5 µM |  | 32.4 µM | > 64.2 µM |  | 15.7 µM |  | > 100 µM | 20.6 µM |  | 
O=C(NCCc1ccccc1)Nc1ccc2cc3ccc(NC(=O)NCCc4ccccc4)cc3nc2c1 | 1.35 µM | 8.44 µM | 3.37 µM | 1.47 µM | 3 µM | 0.276 µM |  |  | 0.258 µM | 5.85 µM | 2.03 µM | 5.7 µM | 2.97 µM | 0.346 µM | 1.31 µM | 1.64 µM | 0.933 µM | 0.697 µM | 1.95 µM | 1.4 µM
O=C(Nc1cccc(-n2cc(-c3ccncc3)c(-c3ccc(O)c(Cl)c3)n2)c1)c1ccc2c(c1)OCCO2 | > 100 µM | > 100 µM | > 100 µM | 2.26 µM | > 100 µM | 6.01 µM | 5.83 µM | > 100 µM | 4.88 µM | > 100 µM | > 100 µM | > 100 µM | > 100 µM | > 100 µM | > 100 µM | 4.92 µM | > 100 µM | > 100 µM | 12.2 µM | > 100 µM
N#Cc1cnc2cc(OC[C@@H](O)CO)c(NC(=O)C3CCCC3)cc2c1Nc1ccc(OCc2cccc(F)c2)c(Cl)c1 | 2.78 µM | 13.4 µM | 2.89 µM | 0.99 µM | 2.48 µM | 0.265 µM | 0.765 µM | 1.61 µM | 1.49 µM | 11.4 µM | 7.69 µM | 17.2 µM | > 50 µM | 1.53 µM | 6.78 µM | 1.09 µM | 1.43 µM | 4.69 µM | 3.86 µM | 3.69 µM
OB(O)c1ccccc1C#Cc1ccccc1B(O)O |  | 15.6 µM | 47.8 µM |  | > 100 µM |  |  | 57.6 µM |  |  |  | 81.4 µM | 67.9 µM |  | > 100 µM |  | 51 µM | > 100 µM |  | 
C/C=C/C/C=C/[C@H](C)C[C@H](O)[C@@H]1C[C@@H]2O[C@H]2/C=C/[C@@H]2OC(C)(C)O[C@H]2/C=C/C[C@H](C)CC(=O)O1 | > 100 µM | > 100 µM | > 100 µM | 6.71 µM | 91.6 µM | 5.22 µM | 12.9 µM | > 100 µM | 3.94 µM | > 100 µM | 73.8 µM | > 100 µM | > 100 µM | 22.7 µM | > 100 µM | 16.3 µM | > 100 µM | 37.4 µM | 6.08 µM | 21.7 µM
Cc1ccc(Nc2cc(Cl)c([N+](=O)[O-])cc2[N+](=O)[O-])cc1 | 13.3 µM | 26.1 µM | 11.8 µM | 2.69 µM | 9.48 µM | 7.63 µM | 3.96 µM | 15.6 µM | 3.87 µM | 6.81 µM | 6.62 µM | 20.9 µM | 17.7 µM | 2.35 µM | 6.82 µM | 3.72 µM | > 24.7 µM | > 52.4 µM | 2.59 µM | 6.33 µM

From PubChem BioAssay (NCI)
